We go through two compounds from article PMC10848769, “Tartrolon E, a secondary metabolite of a marine symbiotic bacterium, is a potent inhibitor of asexual and sexual Plasmodium falciparum” (Antimicrobial Agents and Chemotherapy, 2024).

Data set [1] concerns P. falciparum 3D7 asexual blood stages. Nature of the data set: Standard 72-hour inhibitor-response (parasite proliferation) assay. The format is cell-based. Conditions: Plasmodium falciparum; 3D7, 72-hour assay; read-out: 3D7 EC50.
The subject of a further data set is P. falciparum clone 3D7. The data set is described as follows: Standard growth inhibition assay, Pf clone panel. The format is cell-based. Conditions: Plasmodium falciparum; clone 3D7, Netherlands; read-out: EC50 (nM) (95% CI). The procedure:
(§1) A diverse panel of P. falciparum clones, collected from four continents with varying genetic backgrounds and well-characterized susceptibilities to novel and existing antimalarials, was treated with TrtE and DHA in standard growth inhibition assays. […] Additional studies are needed to determine whether there is any similarity in mechanism between TrtE and DHA.

A further data set deals with P. falciparum clone 7G8. Nature of the data set: Standard growth inhibition assay, Pf clone panel. The format is cell-based. Conditions: Plasmodium falciparum; clone 7G8, Brazil; read-out: EC50 (nM) (95% CI). The procedure: as §1
Data set [2] relates to P. falciparum clone D10 w/ yDHODH. Nature of the data set: Standard growth inhibition assay, Pf clone panel. Format: cell-based. As to conditions: Plasmodium falciparum, D10, read-out: EC50 (nM) (95% CI). The procedure:
as §1

In the next data set the test system is P. falciparum clone D6. The data set is described as follows: Standard growth inhibition assay, Pf clone panel. Format: cell-based. As to conditions: Plasmodium falciparum; clone D6, Sierra Leone; read-out: EC50 (nM) (95% CI). Here is the method:
as §1

A further data set concerns P. falciparum clone Dd2. The data set is described as follows: Standard growth inhibition assay, Pf clone panel. The format is cell-based. Conditions: Plasmodium falciparum. Here is the method:
as §1

The next data set relates to P. falciparum clone GMC1. Nature of the data set: Standard growth inhibition assay, Pf clone panel. As to conditions: Plasmodium falciparum; clone GMC1, Goa, India; read-out: EC50 (nM) (95% CI). The format is cell-based. Here is the method:
as §1

In another data set the test system is P. falciparum clone HB3. Nature of the data set: Standard growth inhibition assay, Pf clone panel. Format: cell-based. Conditions: Plasmodium falciparum; clone HB3, Honduras; read-out: EC50 (nM) (95% CI). The procedure:
as §1

The subject of data set [3] is P. falciparum clone IPC 3445. The data set is described as follows: Standard growth inhibition assay, Pf clone panel. Format: cell-based. Conditions: Plasmodium falciparum; clone IPC 3445, Palin, Cambodia; read-out: EC50 (nM) (95% CI). Here is the method:
as §1

Data set [4] deals with P. falciparum clone IPC 5202. Nature of the data set: Standard growth inhibition assay, Pf clone panel. Format: cell-based. Conditions: Plasmodium falciparum; clone IPC 5202, Battambang, Cambodia; read-out: EC50 (nM) (95% CI). Here is the method:
as §1

A further data set concerns P. falciparum clone NF54. The data set is described as follows: Standard growth inhibition assay, Pf clone panel. The format is cell-based. Conditions: Plasmodium falciparum; clone NF54, Netherlands; read-out: EC50 (nM) (95% CI). Here is the method:
as §1

The subject of data set [5] is P. falciparum clone TM90C2A. Nature of the data set: Standard growth inhibition assay, Pf clone panel. Format: cell-based. As to conditions: Plasmodium falciparum, Thailand, read-out: EC50 (nM) (95% CI). Here is the method:
as §1

The subject of another data set is P. falciparum clone V1/S. Nature of the data set: Standard growth inhibition assay, Pf clone panel. The format is cell-based. Conditions: Plasmodium falciparum, Vietnam, read-out: EC50 (nM) (95% CI). The procedure: as §1
The test system of data set [6] is diverse panel of P. falciparum clones. Nature of the data set: Standard growth inhibition assays, whole panel. Format: cell-based, Plasmodium falciparum. As to conditions: including two artemisinin-resistant clones from Western Cambodia. The procedure:
as §1

Data set [7] relates to Pf NF54 late-stage gametocytes (stage III to stage V). The data set is described as follows: Late-stage gametocyte viability assay (alamarBlue). The format is cell-based. Conditions: Plasmodium falciparum, 72 h, 3 days treatment, three independent experiments. The procedure:
(§2) Gametocytes of Pf NF54, the competent gametocyte-producing clone, were treated with TrtE as previously described ([15], [16]). […] To validate the in vitro gametocytocidal activity of TrtE, mosquito infectivity assays were conducted. […] Oocyst development in mosquitoes represents a significant bottleneck in the life cycle of Plasmodium spp. where transmission can be efficiently interrupted ([18]).
Fig 3 TrtE activity against gametocytes. Enriched, late-stage gametocytes were treated for 3 days with TrtE and then viability-tested with alamarBlue (Invitrogen) ([15], [16]). Three independent experiments (squares, triangles, and diamonds) determined the average EC50 to be 140 ± 42 nM.

The test system of data set [8] is P. falciparum NF54 oocyst development in Anopheles dirus mosquitoes. Nature of the data set: Mosquito infectivity assay (standard membrane feeding, oocyst count). Format: in vivo, Plasmodium falciparum. As to conditions: 100 nM TrtE on late-stage gametocytes, fed to Anopheles dirus, oocysts counted after 9 days, four independent experiments, P = 0.016. Here is the method:
as §2
Fig 4 TrtE inhibition of oocyst development in mosquitoes. Late-stage Pf NF54 gametocytes were incubated with 100 nM TrtE, the approximate gametocidal EC50, or left untreated. Following incubation and development to stage V, the cultures were fed to female Anopheles dirus mosquitoes using standard membrane feeding techniques. After 9 days, the mosquitoes were dissected, and oocysts were stained and counted. The infection rate was measured as the ratio of mosquitoes with one or more oocysts to the number of dissected mosquitoes. ^*P < 0.05.

The test system of the next data set is Pf 3D7. The data set is described as follows: Parasite growth alongside mammalian cytotoxicity assays. The format is cell-based. As to conditions: Plasmodium falciparum; 3D7, grown under identical conditions alongside mammalian cells; read-out: EC50 (µM) (95% CI) 3D7. The procedure:
(§3) In preliminary experiments to evaluate cytotoxicity to mammalian cells, the murine leukemia L1210 cell line and the human liver cell line HepG2 were grown under identical conditions alongside Pf 3D7. These were treated with TrtE, the chemotherapeutic methotrexate, and DSM265, an inhibitor of parasite dihydroorotate dehydrogenase ([19]).

For data set [9], the system named is human liver cell line HepG2. Nature of the data set: In vitro cytotoxicity assay. Conditions: for EC50: Homo sapiens. Format: cell-based. The procedure: as §3
Data set [10] deals with murine leukemia L1210 cell line. The data set is described as follows: In vitro cytotoxicity assay. The procedure:
as §3

In the next data set the test system is asexual parasites. Conditions: preliminary single-step selection, data not shown.

Where two headings read alike, the source gives them in different places.

On to `C[C@H]1[C@@H](O)O[C@@H]2O[C@@]3(C)CC[C@H]4[C@H](C)CC[C@@H]1[C@@]24OO3` [DHA, dihydroartemisinin], for which the EC50 in data set [1] is 0.129 nM; in the data set on P. falciparum clone 3D7, 0.11 nM; with P. falciparum clone 7G8, 0.095 nM; in data set [2] it was 0.12 nM; with P. falciparum clone D6, 0.17 nM; in the data set with P. falciparum clone Dd2 (clone Dd2, SE Asia, read-out: EC50 (nM) (95% CI)) it was 0.14 nM. The EC50 stood at 0.21 nM in the data set with P. falciparum clone GMC1; 0.16 nM in the data set with P. falciparum clone HB3; 0.92 nM in data set [3]; 0.94 nM in data set [4]; 0.15 nM in the data set on P. falciparum clone NF54; 0.091 nM in [5]. The EC50 in the data set with P. falciparum clone V1/S was found to be 0.084 nM.
Consider `C[C@@H]1CCC2CC(=O)C[C@@H](O)CC/C=C/C=C\CC[C@H](C)OC(=O)[C@@H]3O[B-]45O[C@@H](C(=O)O[C@@H](C)CC/C=C\C=C\CC[C@H](O)CC(=O)CC6CC[C@@H](C)[C@]3(O6)O4)[C@@]1(O2)O5` [Tartrolon E], for which the EC50 in data set [1] came to 0.105 nM; in the data set with P. falciparum clone 3D7, 0.16 nM; in the data set on P. falciparum clone 7G8 it was 0.18 nM; in [2], 0.19 nM; in the data set with P. falciparum clone D6 it was 0.14 nM; with P. falciparum clone Dd2 (DD2, read-out: EC50 (nM) (95% CI)), 0.28 nM. The EC50 in the data set with P. falciparum clone GMC1 was found to be 0.26 nM; in the data set on P. falciparum clone HB3 it was 0.13 nM; in [3], 0.73 nM; in [4], 0.81 nM; in the data set with P. falciparum clone NF54 it was 0.2 nM; in data set [5] it was 0.16 nM. In addition, the EC50 in the data set with P. falciparum clone V1/S was 0.31 nM; in data set [7] it was 140 nM; with Pf 3D7, 0.00016 µM; in [9] (HepG2, read-out: EC50 (µM) (95% CI) HepG2) it was 0.071 µM; in [9] (HepG2, as printed in text, read-out: HepG2 EC50), 0.07 µM; in data set [10] (Mus musculus, L1210, read-out: EC50 (µM) (95% CI) L1210), 0.23 µM. Besides, in data set [6], the “Concentration inhibiting all clones of the panel” value is “sub-nanomolar concentrations”. Also, in data set [8], the “Mosquito infection by P. falciparum (infection rate, oocysts)” value is “significantly inhibited mosquito infection”. Also, in data set [9] (HepG2 vs 3D7), the “Selectivity index (EC50 of HepG2/EC50 3D7)” value came to 444. Besides, in [10] (L1210), the “Concentration inhibiting L1210 growth” value is given as “sub-micromolar concentrations”. For the same compound, the “Selectivity index (EC50 of L1210/EC50 3D7)” value in [10] (L1210 vs 3D7) is 1,438. The “Hurdle to resistance under drug pressure” value in the data set on asexual parasites is listed as “high hurdles to resistance”.
